Each structure is given as a SMILES string.

The term melting point denotes the temperature, or range, at which the solid turns liquid. Take `O=C(c1nc(-c2ccccc2)nc2ccccc12)N1CCCC(CO)C1` (stereo not drawn): the melting point is 142 °C.

With `COc1ccc(CCN2CCC(C3c4ccn(C)c4C=Cn4ncnc43)CC2)cc1` (stereo not drawn), the melting point is 140 °C.

Take `COc1nc2ccc(Br)cc2cc1C#N`: the melting point was in the range of 169 to 172 °C.

Molecule `COC(=O)/C=C(C)/C=C/C(F)=C(C)/C=C/c1c(C)sc(C)c1C` registered a melting point of 126 to 128 °C.

With `CC(C)C1(c2ccccc2O)C(=O)N(C)c2ccccc21` (stereo not drawn), the melting point was 172 to 174 °C.

For `CCCN(CCC)C(=O)COC1Cc2cccc(OCC(O)CNC(C)(C)C)c2CC1OCC(=O)N(CCC)CCC` (stereo not drawn), the melting point fell in the range of 124 to 134 °C.

Consider `O=C(Cl)c1c(Oc2ccccc2)cccc1Oc1ccccc1`, for which the melting point lay within 72 to 73 °C.

In turn, `O=C(N[C@H]1CC[C@H](CCN2CCN(c3nccc4c3CCO4)CC2)CC1)c1ccnc2ccccc12` displayed a melting point of 210 °C.

Take `CC1(C)OC(=O)Nc2ccc(OCCCCS(=O)c3ccc(Cl)c(Cl)c3)cc21` (stereo not drawn): the melting point fell in the range of 138 to 139 °C.

`CCOc1cc2c(c(OC(C)=O)c1OCC)=NC(=O)C(=O)N=2`: the melting point lay in the range of 321 to 322 °C.

`CCOC(=O)[C@H](NS(=O)(=O)c1ccc(C)cc1)[C@@H]1CO[C@@H](c2ccccc2)C1` yielded a melting point of 97 to 99 °C.

The molecule `COc1ccc2c(c1)C(=O)c1cccc(OC(C)C)c1-2` yielded a melting point of 89 to 90 °C.

In turn, `O=Cc1c(Cl)n(C2OC(CF)C(O)C2O)c2cc(Cl)c(Cl)cc12` (stereo not drawn) came in with a melting point of 207 to 208 °C.

Take `COc1ccc2occ(CCN3CCN(c4cccc5cccnc45)CC3)c2c1`: the melting point worked out at 78 °C.

As to `CO/C=C(/C(=O)OC)c1cccnc1Oc1cccc(O)c1`, the melting point was in the range of 163 to 165 °C.

Molecule `O=S(=O)(Cl)CCCCCCCc1ccc(OCc2ccccc2)cc1` registered a melting point of 33 to 35 °C.

Turning to `Brc1ccc2c(c1)Cc1cc(I)ccc1-2`, the melting point was 179 to 185 °C.

For the molecule `Cc1nnsc1C(=O)Nc1ccc(-n2nc(-c3cccnc3)cc2C#N)cc1`, the melting point fell in the range of 215 to 218 °C.

`COc1ccc2c(c1)cc(Cc1cc3cc(OC)ccc3n1S(=O)(=O)c1ccccc1)n2S(=O)(=O)c1ccccc1` came in with a melting point of 159 to 160 °C.

With `COC(=O)c1cnc2c3cc(NC(=O)CC(C)(C)C)ccc3ncn2c1=O`, the melting point was 247 to 249 °C.

In the case of `CCOC(=O)c1cnn2c1c(N)nc1ccccc12`, the melting point was in the range of 235 to 237 °C.

Regarding `CC(C)[C@](O)(CCc1ccc(O)cc1)CC(=O)O`, the melting point was in the range of 137 to 140 °C.

With `CCCCCCNC(=O)Oc1ccc(Oc2ccccc2)cc1`, the melting point was in the range of 57 to 59 °C.

As for `O=C(O)c1ccc(OCc2ccc3ccccc3n2)cc1`, the melting point is greater than 300 °C.

`COc1ccc2ccc3c(c2c1)C(CC#N)CCO3` (stereo not drawn) came in with a melting point of 122 to 123 °C.

For `NC(=O)c1ccc(C2CCCc3cncn32)cc1` (stereo not drawn), the melting point lay in the range of 181 to 183 °C.

`COC(=O)C(Cc1ccc([N+](=O)[O-])c(OCc2ccccc2)c1)NC(=O)OC(C)(C)C` (stereo not drawn) had a melting point of 104 to 105 °C.

`O=C(O)C1Cc2c(c(Cl)cc3c(-c4cccc(F)c4)noc23)O1` (stereo not drawn) came in with a melting point of 209 to 210 °C.

As to `CS(=O)(=O)N(Cc1cccnc1)Cc1ccc(Cl)cc1Cl`, the melting point was 78 to 80 °C.

In turn, `Clc1ccc(C=CC(C=Cc2ccc(Cl)cc2)=NNC2=NCC(c3ccccc3)(c3ccccc3)N2)cc1` registered a melting point of 227 °C.

Take `CC1(CN2CCN(C(=O)Cc3ccc(Cl)c(Cl)c3)CC2)Cn2cc([N+](=O)[O-])nc2O1` (stereo not drawn): the melting point lay in the range of 189 to 191 °C.

`CSc1nc2c(n1-c1ccccc1)CCCC2` registered a melting point of 112 °C.

`CSc1cc2c(cc1C(F)(F)F)N(C(=O)Nc1cccc(C(=O)NC3CCN(Cc4ccccc4)C3)c1)CC2` (stereo not drawn) registered a melting point of 174 to 175 °C.

`CC(C)(C)C(O)(COc1ccc(F)cc1)C(Cc1ccc(Cl)cc1)n1cncn1` (stereo not drawn): the melting point lay in the range of 104 to 105 °C.

For the molecule `COc1cc(N2CCCN(C3CCN(C)CC3)CC2)ccc1Nc1ncc2ccc(-c3ccccc3OC)n2n1`, the melting point was in the range of 71 to 80 °C.

Molecule `Cc1nc(C)c(Cl)c(NCc2ccc(O)c(OC(F)F)c2)n1` registered a melting point of 167 to 168 °C.

The molecule `NCCCCc1ccccc1C1=NNC(=O)CC1` displayed a melting point of 78 to 80 °C.

Turning to `CC(C)(C)c1ccc(OCC(O)CN2CCCC3(CSC4=C(O3)c3ccccc3C(=O)C4=O)C2)cc1` (stereo not drawn), the melting point was in the range of 90 to 92 °C.

In turn, `Cc1cc(C)c(F)cc1F` yielded a melting point of 30 to 31 °C.

As for `COc1ccc(C(=O)Nc2c(Cl)cncc2Cl)cc1OC1CC=CC1`, the melting point lay within 193 to 195 °C.

`Nc1csc2ccc([N+](=O)[O-])cc12` came in with a melting point of 155 to 158 °C.

As to `COc1ccc(NS(=O)(=O)c2ccccc2Br)cc1N(C)C1CCN(C)CC1`, the melting point lay in the range of 119 to 121 °C.

For `NC(=O)c1ncn2c1NCC=C2c1cccc(Cl)c1`, the melting point was 182 to 184 °C.

Take `O=C(O)c1cc(Cl)ccc1SSc1ccc(Cl)cc1C(=O)O`: the melting point lay in the range of 320 to 324 °C.

Take `CC(C)NC(=O)C(C)CN(C)C` (stereo not drawn): the melting point was 67 to 69 °C.

Consider `OC/C=C/CC/C=C/CC/C=C/CO`, for which the melting point fell in the range of 37 to 38 °C.

Consider `NC(=O)c1cccc2c3c(cc([N+](=O)[O-])c12)N(C(=O)C(F)(F)F)CC3CCl` (stereo not drawn), for which the melting point lay in the range of 272 to 277 °C.

Consider `CN1CC(CCNC(=S)NC(=O)c2ccccc2)CC2c3cccc4[nH]cc(c34)CC21` (stereo not drawn), for which the melting point was 205 to 207 °C.

Molecule `CCOC(=O)c1c(CN2CCCCC2)nc2cc(OC)c(OC)cc2c1-c1ccc(OC)cc1` had a melting point of 129 to 130 °C.

For the molecule `CCCNC(=O)c1cc2ccc(OC)cc2n1CCNC(C)=O`, the melting point is 127 to 128 °C.

Consider `CCOC(=O)C(=O)CC(=O)N1CCOCC1`, for which the melting point amounted to 60 °C.

As for `COc1ccc(C2C(C#N)=C(N)Oc3c2ccc2cccnc32)cc1OC` (stereo not drawn), the melting point lay in the range of 118 to 120 °C.

Turning to `COc1ccc(-c2nccc(N)n2)cc1`, the melting point lay in the range of 102 to 104 °C.

Turning to `Nc1nc(Cl)nc(C2CC2)n1`, the melting point lay within 139 to 142 °C.

Consider `O=C(O)c1cccc(-c2ccc(OC[C@H](O)CCc3cccnc3)cc2)c1`, for which the melting point fell in the range of 165 to 168 °C.

With `COc1cc(-c2nc3ccccc3n2Cc2cccc(C)c2)cc(OC)c1OC`, the melting point came out at 78 °C.

`O=C(c1ccc(F)cc1)N1CCCC(c2nc(-c3ccc(F)cc3)no2)C1` (stereo not drawn) gave a melting point of 118 to 122 °C.

For `CC(C)(C)C1=C(O)C(=O)c2ccccc2C1=O`, the melting point is 89 °C.

Regarding `CC(c1oc2ccc(F)cc2c(=O)c1-c1ccccc1F)n1cnc2c(N)ncnc21` (stereo not drawn), the melting point lay in the range of 245 to 248 °C.

Consider `CC1(C)Oc2ccc(C#N)cc2C(Oc2ccncn2)C1(C)O` (stereo not drawn), for which the melting point fell in the range of 103 to 105 °C.

Take `COC(=O)CCCC(=O)c1ccc2c(c1)CCO2`: the melting point was in the range of 80 to 81 °C.

The molecule `O=C1NCN2c3ccccc3Sc3cccc1c32` displayed a melting point of 187 to 192 °C.

Regarding `O=C(On1nnc2ccccc21)c1ccccc1`, the melting point was 75 to 78.5 °C.

Turning to `O=C(NCC(C(=O)O)C(F)(F)F)Nc1ccccc1` (stereo not drawn), the melting point lay in the range of 180 to 181 °C.

`CC(C)n1nc(-c2cnc(NCc3ccccn3)nc2-c2ccccc2)ccc1=O` displayed a melting point of 143 to 144 °C.

Consider `CCOC(=NC(=O)c1ccco1)N1Cc2ccccc2-c2ccccc2C1`, for which the melting point is 87 to 92 °C.

The molecule `CS(=O)(=O)c1ccc(C2=C(c3ccccc3)C(=O)c3ccccc32)cc1` displayed a melting point of 167 to 168 °C.

Take `COc1ccc(-c2cncc(C#N)c2-c2ccc3[nH]ccc3c2)cc1OC`: the melting point was 215 to 217 °C.

Turning to `CC1(C)CCC(C)(C)c2cc(-c3cc(-c4ccc(C(=O)O)cc4)ccc3OCCCCO)ccc21`, the melting point amounted to 235 °C.

`Cc1ccc(C=C2NC(=O)N(c3cc(F)ccc3F)C2=O)cc1`: the melting point fell in the range of 218 to 224 °C.

In turn, `Cc1cc(-n2nc(C(F)F)cc2-c2ccc(S(C)(=O)=O)cc2)ccc1Cl` came in with a melting point of 145 to 146 °C.

In turn, `NS(=O)(=O)Oc1cccc(I)c1` yielded a melting point of 106 to 108 °C.

`NC(=O)CNC(=O)c1ccnc(-c2cccc3cc(Cc4cccc(C(F)(F)F)c4)sc23)c1` yielded a melting point of 176 to 177 °C.

The molecule `O=C(O)c1cccc2cc(-c3ccccc3)oc12` returned a melting point of 212 to 214 °C.

As for `O=C(O)c1ccc(OCCNC(=O)C2Cc3ccccc3N2S(=O)(=O)c2ccc(-c3ccc(F)cc3)cc2)c(C(F)(F)F)c1` (stereo not drawn), the melting point fell in the range of 139 to 142 °C.

Take `O=S(=O)(Nc1ccc2c(OCc3ccc(-c4ccccc4)cc3F)cccc2c1)C(F)(F)F`: the melting point lay in the range of 123 to 125 °C.

Molecule `Nc1ccccc1C(=O)NC1CCCCC1` came in with a melting point of 152 to 154 °C.

`CCC(C)C(OCc1ccccc1)C1C(C(=O)NCC(=O)O)NC(C2CCCCC2)C1[N+](=O)[O-]` (stereo not drawn) registered a melting point of 177 to 179 °C.

In turn, `CCCCc1nn(Cc2ccc(-c3ccccc3-c3nnn[nH]3)cc2)c(=O)n1Cc1ccc(-c2ccccc2-c2nnn[nH]2)cc1` registered a melting point of 150 to 151 °C.

Molecule `CC(=O)N(O)C(C)c1csc2ccccc12` (stereo not drawn) registered a melting point of 123 to 125 °C.

`Nc1ccccc1NC(=O)c1cc2cc(OCc3ccccn3)ccc2s1` registered a melting point of 205 to 207 °C.

Take `COC(=O)c1ccc(OC(=C(Oc2ccc(C(=O)OC)cc2)C(F)(F)F)C(F)(F)F)cc1`: the melting point came out at 123 °C.

`CC(=O)OC1CSC(Oc2cncc(-c3cnccc3C)c2)C(OC(C)=O)C1OC(C)=O` (stereo not drawn): the melting point stood at 165 °C.

`CC(Oc1ccc(Oc2ccc(C(F)(F)F)cn2)cc1)C(=O)N1CCCO1` (stereo not drawn) yielded a melting point of 83 to 85 °C.

In the case of `CCOc1cc(CC)ccc1C1CCN(CCCCNC(=O)c2sc(-c3ccc(C(F)(F)F)cc3)nc2CO)CC1`, the melting point came to 150 °C.

For the molecule `O=C(O)Cc1cc(C(=O)c2ccccc2)cc(Br)c1O`, the melting point is 132 °C.

Regarding `COc1ccc(N(C)c2nccc(-c3ccncc3)n2)cc1`, the melting point lay in the range of 124 to 126 °C.

Regarding `CCC(C)(CC)c1ccc(NC(=O)c2c(OC)cccc2OC)nn1`, the melting point is 145 to 147 °C.

For the origin of these results see a melting point compilation (Tetko et al.; mined from patent text by program, amines drawn as free bases though some values may be those of a salt).
